# Key:
# [1] = tested on: myotubes differentiated from healthy donors (human primary myoblasts HSMM, Lonza); assay: Myotube shortening assay (contraction induction, troponin T immunostaining, image analysis); type: cell-based; conditions: 4-chloro-m-cresol 1.5 mM, 3 minutes
# Protocol: Human primary myoblasts (HSMM, Lonza) are cultured on fibronectin coated surfaces within growth medium (Lonza SkGM™-2 cell culture Kit) during 24 hours. Then cells are cultured within differentiation medium (DMEM/F12, 2% Horse Serum, 0.5% P/S) for 5 days. Compounds (4-chloro-m-cresol, 1.5 mM) are added to myotubes during 3 minutes. Cells are fixed and an immunostaining is realized against troponin T and nuclei. Images are acquired using an Operetta high content imaging system (PerkinElmer). Automated image segmentation and analysis methods has been developed by the inventors using the Acapella software library (PerkinElmer). Then, objects are analyzed to extract basic parameters such as myotube count, nuclei count, myotube morphology (including their length, width, area), fusion index (through the percentage nuclei embedded within myotubes). However, the main descriptor of myotube shortening is the quantification of the number of spots, which are objects obtained due to myotube detachment from the culture device and subsequent folding of at least one extremity of the myotube on itself (FIG. 2B, right). Taking said parameters into account, aberrant myotubes are removed. An advanced descriptor is additionally measured, as the number of myotubes encompassing a length lower than 470 μm. […] As myotubes treatment with 4-chloro-m-cresol induces 25% decrease in tube area, and 50% increase in staining intensity readouts, the use of spot number quantification largely increases the assay window (1000%) with a reduced variability, ensuring a full compatibility of the assay with compounds screening (Z′-factors higher than 0.7).
# [2] = tested on: myotubes from DMD donors; assay: DMD myotube morphology rescue assay; type: cell-based, human; conditions: for increase of fusion index in DMD myotubes / increase of tube number in DMD myotubes: prednisone 500 nM, deflazacort 50 nM
# Protocol: Using previously described protocol, human primary myoblasts, are cultured on fibronectin coated surfaces within growth medium during 24 hours. Then cells are cultured within differentiation medium (DMEM/F12, 2% Horse Serum, 0.5% P/S) for 24 hours. Therapeutic drug candidates are added and myotubes are then cultured during 96 hours. Cells are fixed and an immunostaining is realized against troponin T and nuclei. Images are acquired using an Operetta high content imaging system (PerkinElmer). Automated image processing was been developed by the inventors using the Acapella software library (PerkinElmer).
# [3] = tested on: myotubes from healthy donor; assay: Inhibition of calcium release after acetylcholine or 4-chloro-m-cresol induction (Fluo-4); type: cell-based, human; conditions: tubocurarine 100 μM, succinylcholine 25 μM; for effect on 4-chloro-m-cresol induction of calcium release: 4-chloro-m-cresol 400 μM induction; for decrease of relative fluorescence intensity after acetylcholine induction: acetylcholine 20 μM induction, inhibitor added 15 minutes before, verapamil, nifedipine, nicardipine 40 μM
# Protocol: (§1) As myotube shortening can also take origin from compound toxicity, physiological cues of myotube contraction need to be validated. Hit validation is performed using a secondary assay estimating the level of calcium release to myotube cytoplasm. Myotubes differentiated from donors are cultured during 5 days and stained with a calcium sensitive florescent probe Fluo-4 (2 μM) in a dedicated buffer (145 mM NaCl, 5 mM KCl, 1 mM CaCl2, 1 mM MgCl2, 5.6 mM glucose, 10 mM Hepes, pH 7.4). A single compound is added to cultured myotubes and a time-lapse acquisition is performed during 30 seconds (Eclipse-Ti, Nikon), by taking a picture each second, to follow the increase in fluorescence intensity of the probe due to calcium entry into the cytoplasm. After fluorescence background removal, a relative fluorescence intensity is calculated in the whole myotubes for each timepoint, normalizing to the first value set up at 100%.
# Myoblasts are differentiated during 5 days in culture, then potential inhibitors are added in calcium buffer 15 minutes before an acethycholine treatment. […] Moreover mode of action characterization can be optimized by comparing a compound effect on both acethycholine and 4-chloro-m-cresol inductions. […] Even if a time-lapse method is described here using a classical widefield microscope, this embodiment of the invention is fully compatible with kinetic plate readers systems allowing automated calcium flow measurements, including the Hamamatsu FDSS.
# [4] = tested on: myotubes differentiated from healthy donors; assay: Calcium release assay in myotubes (Fluo-4 time-lapse), inducers; type: cell-based, human; conditions: acetylcholine 20 μM, caffeine 10 mM, IGF-1 37 nM, 30 seconds time-lapse
# Protocol: as §1
# [5] = tested on: myotubes from a healthy donor with chemically induced atrophy; assay: Atrophy induction and atrophy rescue assay (muscle disuse or wasting model); type: cell-based, human; conditions: for reduction of myotube area (atrophy induction) / rescue of atrophy induced by dexamethasone: dexamethasone 100 μM; for reduction of myotube area (atrophy induction) / rescue of atrophy induced by myostatin: myostatin 4.8 nM; for reduction of myotube area (atrophy induction) / rescue of atrophy induced by IL1-β: IL1-β 1.16 nM; for reduction of myotube area (atrophy induction) / rescue of atrophy induced by TNF-α: TNF-α 115 pM; for reduction of myotube area (atrophy induction): 96 hours; for rescue of atrophy induced by IL1-β / rescue of atrophy induced by TNF-α / rescue of atrophy induced by dexamethasone / rescue of atrophy induced by myostatin: IGF-1 18.75 nM, trichostatin A 300 nM
# Text: Another possible application is to mimic muscle wasting disorders (cachexia, sarcopenia) by chemically inducing atrophy on myotubes from healthy donors and then to screen compounds potentially rescuing the atrophic phenotype. As patients suffering from a large decrease in muscle mass, primary myoblast samples or myofibers can't be collected for ethical reasons and artificial in vitro strategies are necessary. Nonetheless, signaling pathways impacted in cachexia and sarcopenia are well described in the literature implicating three major cascades: glucocorticoid, Smad2/3 and the NF-κB pathway. Molecules known to reproduce these molecular mechanisms can therefore be used to simulate pathological myotubes. For example, glucocorticoid pathway can be mimicked by dexamethasone treatment, Smad2/3 pathway by myostatin and TGF-β treatments, and NF-κB pathway by IL1-β and TNF-α treatments.
# To do so, human primary myoblasts (HSMM, Lonza), from a healthy donor, are cultured on fibronectin coated surfaces within growth medium (Lonza SkGM™-2 cell culture Kit) during 24 hours. Then cells are cultured within differentiation medium (DMEM/F12, 2% Horse Serum, 0.5% P/S) for 24 hours. Candidates with potential rescue effect are added to the forming myotubes 15 minutes before the atrophic inducer. Then myotubes are cultured during 96 hours. Cells are fixed and an immunostaining is realized against troponin T and nuclei. Images are acquired using an Operetta high content imaging system (PerkinElmer). Automated image processing has been developed by the inventors using the Acapella software library (PerkinElmer).
# [6] = tested on: myotubes differentiated from healthy donors; assay: Morphology assay (myotube area and nuclei count, dose response); type: cell-based, human; conditions: 96 hours, compared to untreated control
# Protocol: Human primary myoblasts (HSMM, Lonza), from a healthy donor, are cultured on fibronectin coated surfaces within growth medium (Lonza SkGM™-2 cell culture Kit) during 24 hours. Then cells are cultured within differentiation medium (DMEM/F12, 2% Horse Serum, 0.5% P/S) for 24 hours. Compounds are added to the forming myotubes during 96 hours. Cells are fixed and an immunostaining is realized against troponin T and nuclei. Images are acquired using an Operetta high content imaging system (PerkinElmer).
# In order to characterize compounds mode of action on the myotube model (including myoblasts differentiation, myotube maturation, myotube hypertrophy, myotube atrophy, or cell viability), automated image segmentation and analysis methods has been developed by the inventors using the Acapella software library (PerkinElmer).
# First, customized segmentations of myotubes and nuclei are performed.
# Second, objects are analyzed to extract basic parameters such as myotube count, nuclei count, myotube morphology (including their length, width, area, and orientation), fusion index (through the percentage nuclei within myotubes). Taking said parameters into account, aberrant myotubes are removed.
# [7] = tested on: myotubes differentiated from myoblasts of healthy donors; assay: Glucose metabolism assay (Glucose Uptake Colorimetric Assay Kit); type: cell-based, human
# Protocol: (§2) Human primary myoblasts from a healthy or a type I diabetic donor, are cultured on fibronectin coated surfaces within growth medium during 24 hours. Then cells are cultured within differentiation medium (DMEM/F12, 2% Horse Serum, 0.5% P/S) for 24 hours. Therapeutic drug candidates are added and myotubes are then cultured during 96 hours. Compound effect on glucose metabolism is performed by using the indications provided by the manufacturer (Glucose Uptake Colorimetric Assay Kit, Sigma).
# [8] = tested on: myotubes from healthy and type I diabetes donors; assay: Morphology of myotubes from healthy and type I diabetes donors; type: cell-based, human; conditions: insulin 10 μM
# Protocol: as §2
# FIG. 10 is a quantification of some relevant morphological parameters, as tube number, fusion index, tube area tube width, of myotubes from healthy and type I diabetes donors, cultured in control and insulin (10 μM) conditions according to the invention. […] This illustrates the specificity of metabolisms assays on compounds detection and the complementarity of the approaches to detect new drugs rescuing specifically metabolic disorders.
compound,measurement,setting,value
Cc1cc(O)ccc1Cl [4-chloro-m-cresol],"spot number quantification, assay window",[1],1000%
same,decrease in tube area,[1]; myotubes cultured 5 days,25%
same,increase in staining intensity,[1]; troponin T staining,50%
"C[C@]12C=CC(=O)C=C1CC[C@@H]1[C@@H]2C(=O)C[C@@]2(C)[C@H]1CC[C@]2(O)C(=O)CO [Prednisone, prednisone]",increase of fusion index in DMD myotubes,[2],28%
same,increase of tube number in DMD myotubes,[2],20%
"COc1cc2c3cc1Oc1cc(ccc1O)C[C@@H]1c4c(cc(OC)c(O)c4Oc4ccc(cc4)C[C@@H]3N(C)CC2)CC[N+]1(C)C [Tubocurarine, tubocurarine]",effect on 4-chloro-m-cresol induction of calcium release,[3],0%
same,decrease of relative fluorescence intensity after acetylcholine induction,[3],96%
"CC(=O)OCC[N+](C)(C)C [acethylcholine, acetylcholine]",increase of relative fluorescence intensity (calcium release) compared to steady state level,[4],305%
Cn1c(=O)c2c(ncn2C)n(C)c1=O [caffeine],increase of relative fluorescence intensity (calcium release) compared to steady state level,[4],55%
CC(=O)OCC(=O)[C@@]12N=C(C)O[C@@H]1C[C@H]1[C@@H]3CCC4=CC(=O)C=C[C@]4(C)[C@H]3[C@@H](O)C[C@@]12C [deflazacort],increase of fusion index in DMD myotubes,[2],59%
same,increase of tube number in DMD myotubes,[2],54%
C[C@@H]1C[C@H]2[C@@H]3CCC4=CC(=O)C=C[C@]4(C)[C@@]3(F)[C@@H](O)C[C@]2(C)[C@@]1(O)C(=O)CO [dexamethasone],reduction of myotube area (atrophy induction),[5],60%
COC(=O)C1=C(C)NC(C)=C(C(=O)OCCN(C)Cc2ccccc2)C1c1cccc([N+](=O)[O-])c1 (stereo not drawn) [nicardipine],decrease of relative fluorescence intensity after acetylcholine induction,[3],91%
C[N+](C)(C)CCOC(=O)CCC(=O)OCC[N+](C)(C)C [succinylcholine],effect on 4-chloro-m-cresol induction of calcium release,[3],−30%
same,decrease of relative fluorescence intensity after acetylcholine induction,[3],94%
CC(/C=C/C(=O)NO)=C\[C@@H](C)C(=O)c1ccc(N(C)C)cc1 [trichostatin A],rescue of atrophy induced by IL1-β,[5],54%
same,rescue of atrophy induced by TNF-α,[5],100%
same,rescue of atrophy induced by dexamethasone,[5],175%
same,rescue of atrophy induced by myostatin,[5],71%
same,effect on myotube area,[6],atrophy/hypertrophy biphasic effects
IGF-1: hypertrophic reference compound,increase of relative fluorescence intensity (calcium release) compared to steady state level,[4],20%
same,effect on glucose uptake,[7]; IGF-1 37 nM,no effect
same,rescue of atrophy induced by IL1-β,[5],85%
same,rescue of atrophy induced by TNF-α,[5],89%
same,rescue of atrophy induced by dexamethasone,[5],275%
same,rescue of atrophy induced by myostatin,[5],71%
same,effect on myotube area,[6],hypertrophic
same,effect on nuclei count,[6],without nuclei count alteration
same,rescue of fusion index in DMD myotubes,"[2]; IGF-1 37 nM, 96 hours",204%
same,rescue of myotube width in DMD myotubes,"[2]; IGF-1 37 nM, 96 hours",15%
same,rescue of tube number in DMD myotubes,"[2]; IGF-1 37 nM, 96 hours",109%
"IL1-β: atrophy inducer, NF-κB pathway",reduction of myotube area (atrophy induction),[5],35%
Insulin,increase of glucose metabolism,[7]; insulin 10 μM,67%
same,"effect on myotube morphology (tube number, fusion index, tube area, tube width)",[8],does not modify myotube morphology
"TGF-β: atrophic reference compound, Smad2/3 pathway",effect on myotube area,[6],atrophic
same,effect on nuclei count,[6],without nuclei count alteration
TNF-α,reduction of myotube area (atrophy induction),[5],55%
"myostatin: atrophic reference compound, Smad2/3 pathway",reduction of myotube area (atrophy induction),[5],30%
same,effect on nuclei count,[6],decrease in nuclei count
